According to PubChem BioAssay AID330 (DTP/NCI, 2004):
“And” between values parts separate entries of the source, which are not always exact repeats. Identical values can stand only once. Toxic doses and inconclusive results are not listed.

Test system: P388 leukemia ip, CD2F1 mice, survival T/C
Test: NCI In Vivo Anticancer Drug Screen. Data for tumor model P388 Leukemia (intraperitoneal) in CD2F1 (CDF1) mice
Conditions: endpoint: median survival time, higher = longer survival
Method in brief: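 Mice carrying the transplanted tumor received test compound or vehicle. Survival was recorded in each group, and the value is the treated-group measurement divided by that of the vehicle-treated control group.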

[1] = dose: 60.0 mg/kg/injection, schedule: Q01DX005 (ip), vehicle: Klucel (hydroxypropylcellulose) (HPC)
[2] = dose: 120.0 mg/kg/injection, schedule: Q01DX005 (ip), vehicle: Klucel (hydroxypropylcellulose) (HPC)
[3] = dose: 240.0 mg/kg/injection, schedule: Q01DX005 (ip), vehicle: Klucel (hydroxypropylcellulose) (HPC)
[4] = dose: 50.0 mg/kg/injection, schedule: Q01DX005 (ip), vehicle: saline with Tween-80
[5] = dose: 100.0 mg/kg/injection, schedule: Q01DX005 (ip), vehicle: saline with Tween-80
[6] = dose: 200.0 mg/kg/injection, schedule: Q01DX005 (ip), vehicle: saline with Tween-80
[7] = dose: 50.0 mg/kg/injection, schedule: Q01DX005 (ip), vehicle: Klucel (hydroxypropylcellulose) (HPC)
[8] = dose: 100.0 mg/kg/injection, schedule: Q01DX005 (ip), vehicle: Klucel (hydroxypropylcellulose) (HPC)
[9] = dose: 200.0 mg/kg/injection, schedule: Q01DX005 (ip), vehicle: Klucel (hydroxypropylcellulose) (HPC)
[10] = dose: 12.5 mg/kg/injection, schedule: Q01DX009 (ip), vehicle: saline with Tween-80
[11] = dose: 25.0 mg/kg/injection, schedule: Q01DX009 (ip), vehicle: saline with Tween-80
[12] = dose: 50.0 mg/kg/injection, schedule: Q01DX009 (ip), vehicle: saline with Tween-80
[13] = dose: 100.0 mg/kg/injection, schedule: Q01DX009 (ip), vehicle: saline with Tween-80
[14] = dose: 200.0 mg/kg/injection, schedule: Q01DX009 (ip), vehicle: saline with Tween-80
[15] = dose: 50.0 mg/kg/injection, schedule: Q01DX009 (ip), vehicle: saline
[16] = dose: 100.0 mg/kg/injection, schedule: Q01DX009 (ip), vehicle: saline
[17] = dose: 200.0 mg/kg/injection, schedule: Q01DX009 (ip), vehicle: saline
[18] = dose: 100.0 mg/kg/injection, schedule: Q04DX003 (ip), vehicle: saline with Tween-80
[19] = dose: 30.0 mg/kg/injection, schedule: Q01DX005 (ip), vehicle: saline with Tween-80
[20] = dose: 60.0 mg/kg/injection, schedule: Q01DX005 (ip), vehicle: saline with Tween-80
[21] = dose: 120.0 mg/kg/injection, schedule: Q01DX005 (ip), vehicle: saline with Tween-80

`CCC1OC2(C)C(O)C(/C=C/C=C/C=C/c3oc(=O)cc(OC)c3C)OC1(C)C2OC(C)=O` (configuration not stated) was tested, and the T/C (dose: 0.5 mg/kg/injection, schedule: Q01DX009 (ip), vehicle: Klucel (hydroxypropylcellulose) (HPC)) was 109 % of control, the T/C (dose: 1.0 mg/kg/injection, schedule: Q01DX009 (ip), vehicle: Klucel (hydroxypropylcellulose) (HPC)) was 105 % of control and the T/C (dose: 2.0 mg/kg/injection, schedule: Q01DX009 (ip), vehicle: Klucel (hydroxypropylcellulose) (HPC)) was 100 % of control.
In the case of `CC(C)(C)n1nc(C2CC2)c(Br)c1NC(=O)c1ccccc1`, the T/C (dose: 30.0 mg/kg/injection, schedule: Q01DX005 (ip), vehicle: Klucel (hydroxypropylcellulose) (HPC)) is reported as 107 % of control, the T/C [1] is reported as 109 % of control and the T/C [2] is reported as 107 % of control. For the same molecule, the T/C [3] was 98 % of control.
With `CC(Oc1cc(Cl)c(Cl)cc1Cl)C(=O)NC(Cc1ccccc1)C(=O)O` (configuration not stated) the T/C [4] was 105 % of control, the T/C [5] was 109 % of control and the T/C [6] was 95 % of control.
For `N#CNC(=S)S`, the T/C (dose: 100.0 mg/kg/injection, schedule: Q04DX002 (ip), vehicle: saline) was 105 % of control, the T/C (dose: 200.0 mg/kg/injection, schedule: Q04DX002 (ip), vehicle: saline) was 109 % of control and the T/C (dose: 400.0 mg/kg/injection, schedule: Q04DX002 (ip), vehicle: saline) was 105 % of control.
`CC(O)(CCCCCl)c1nc2ccccc2s1` (configuration not stated) was tested, and the T/C (dose: 100.0 mg/kg/injection, schedule: Q01DX001 (ip), vehicle: saline with Tween-80) was 98 % of control, the T/C (dose: 200.0 mg/kg/injection, schedule: Q01DX001 (ip), vehicle: saline with Tween-80) was 103 % of control and the T/C (dose: 400.0 mg/kg/injection, schedule: Q01DX001 (ip), vehicle: saline with Tween-80) was 92 % of control.
In the case of `Nc1ccc2nc3ccc(O)cc3nc2c1`, the T/C [7] is reported as 103 % of control, the T/C [8] is reported as 108 % of control and the T/C [9] is reported as 105 % of control.
`O=C(c1ccccc1)N(C(=O)c1ccccc1)c1ccccn1` was tested, and the T/C [10] was 103 % of control, the T/C [11] was 106 % of control and the T/C [12] was 112 % of control. The T/C [13] was 87 % of control, the T/C [14] was 86 % of control and the T/C (dose: 400.0 mg/kg/injection, schedule: Q01DX009 (ip), vehicle: saline with Tween-80) was 93 % of control.
For `Cc1ccc(C#N)c(Cl)c1`, the T/C [15] was 100 % of control, the T/C [16] was 100 % of control and the T/C [17] was 106 % of control.
In the case of `O=C(Nc1ccc(Sc2ccc(N=Nc3c(O)c(S(=O)(=O)O)cc4cc(S(=O)(=O)O)ccc34)cc2)cc1)c1ccc(N=Nc2c(O)ccc3c(S(=O)(=O)O)cc(S(=O)(=O)O)cc23)cc1`, the T/C [7] is reported as 102 % of control, the T/C [8] is reported as 97 % of control and the T/C [9] is reported as 109 % of control.
For `CN(C)C(=S)SCNC(=S)NCSC(=S)N(C)C`, the T/C (dose: 6.25 mg/kg/injection, schedule: Q01DX009 (ip), vehicle: saline with Tween-80) was 104 % of control, the T/C [10] was 110 % of control and 117 % of control and the T/C [11] was 116 % of control and 121 % of control.
With `O=c1[nH]c2cc(Cl)ccc2nc1/C=C(\O)c1ccccc1` the T/C [1] was 96 % of control, the T/C [2] was 91 % of control and the T/C [3] was 92 % of control.
With `CC(=O)O/N=C(C)/C(C)=N/Nc1ccccc1` the T/C [4] was 93 % of control, the T/C [5] was 89 % of control and the T/C [6] was 87 % of control.
With `CC1(C)SC2C(NC(=O)C(N)c3ccc(O)cc3)C(=O)N2C1C(=O)O` (configuration not stated) the T/C [15] was 113 % of control, the T/C [16] was 116 % of control and the T/C [17] was 113 % of control.
`COc1ccc(-n2c(C)nc3c(cnn3C)c2=O)cc1` was tested, and the T/C (dose: 25.0 mg/kg/injection, schedule: Q01DX005 (ip), vehicle: Klucel (hydroxypropylcellulose) (HPC)) was 101 % of control and 96 % of control, the T/C [7] was 100 % of control and 101 % of control and 97 % of control and the T/C [8] was 108 % of control and 115 % of control and 95 % of control. The T/C [9] was 99 % of control and 120 % of control and 97 % of control.
With `Cc1cn[nH]c(=O)c1` the T/C [12] was 99 % of control, the T/C [13] was 99 % of control and the T/C [14] was 99 % of control.
With `Cc1c2c[n+](CCCCCCCC[n+]3ccc4c(C)c5c(c(C)c4c3)c3ccccc3n5CCO)ccc2c(C)c2c1c1ccccc1n2CCO` the T/C (dose: 0.78 mg/kg/injection, schedule: Q04DX003 (ip), vehicle: distilled water + Tween-80) was 154 % of control, the T/C (dose: 1.56 mg/kg/injection, schedule: Q04DX003 (ip), vehicle: distilled water + Tween-80) was 155 % of control and 157 % of control and the T/C (dose: 6.25 mg/kg/injection, schedule: Q04DX003 (ip), vehicle: distilled water + Tween-80) was 155 % of control and 158 % of control. The T/C (dose: 12.5 mg/kg/injection, schedule: Q04DX003 (ip), vehicle: distilled water + Tween-80) was 158 % of control and 184 % of control, the T/C (dose: 25.0 mg/kg/injection, schedule: Q04DX003 (ip), vehicle: distilled water + Tween-80) was 184 % of control and the T/C (dose: 50.0 mg/kg/injection, schedule: Q04DX003 (ip), vehicle: distilled water + Tween-80) was 87 % of control.
`CCC[CH2][Sn]1([CH2]CCC)[O]OC(c2ccc(C)cc2)[O]1` (configuration not stated) was tested, and the T/C (dose: 0.19 mg/kg/injection, schedule: Q01DX009 (ip), vehicle: saline with Tween-80) was 102 % of control, the T/C (dose: 0.38 mg/kg/injection, schedule: Q01DX009 (ip), vehicle: saline with Tween-80) was 94 % of control and the T/C (dose: 0.75 mg/kg/injection, schedule: Q01DX009 (ip), vehicle: saline with Tween-80) was 116 % of control.
In the case of `N#CC(c1ccccc1)(N1CCOCC1)N1CCOCC1`, the T/C (dose: 6.25 mg/kg/injection, schedule: Q04DX003 (ip), vehicle: saline) is reported as 101 % of control and 97 % of control, the T/C (dose: 12.5 mg/kg/injection, schedule: Q04DX003 (ip), vehicle: saline) is reported as 100 % of control and 101 % of control and the T/C (dose: 25.0 mg/kg/injection, schedule: Q04DX003 (ip), vehicle: saline) is reported as 100 % of control and 101 % of control (2×). The T/C [18] was 100 % of control.
With `C[CH2][Sn]([CH2]C)([O][P+](=O)C[Si](C)(C)c1ccccc1)[O][P+](=O)C[Si](C)(C)c1ccccc1` (configuration not stated) the T/C [19] was 119 % of control and the T/C [20] was 153 % of control.
`C1=C(c2ccccc2)N2CCCNC2(c2ccccc2)CS1` (configuration not stated) was tested, and the T/C (dose: 100.0 mg/kg/injection, schedule: Q04DX002 (ip), vehicle: saline with Tween-80) was 90 % of control, the T/C (dose: 200.0 mg/kg/injection, schedule: Q04DX002 (ip), vehicle: saline with Tween-80) was 90 % of control and the T/C (dose: 400.0 mg/kg/injection, schedule: Q04DX002 (ip), vehicle: saline with Tween-80) was 88 % of control.
For `CC(CN)c1ccccc1` (configuration not stated), the T/C (dose: 12.5 mg/kg/injection, schedule: Q01DX009 (ip), vehicle: saline) was 111 % of control, the T/C (dose: 25.0 mg/kg/injection, schedule: Q01DX009 (ip), vehicle: saline) was 101 % of control and the T/C [15] was 101 % of control and 103 % of control.
`S=C1NCCNC(=S)SS1` was tested, and the T/C [8] was 108 % of control.
With `O=C(Nc1cccc(Cl)c1Cl)c1cc(/C=C/c2ccc([N+](=O)[O-])cc2)on1` the T/C [19] was 95 % of control, the T/C [20] was 91 % of control and 96 % of control and the T/C [21] was 87 % of control and 95 % of control. The T/C (dose: 240.0 mg/kg/injection, schedule: Q01DX005 (ip), vehicle: saline with Tween-80) was 97 % of control.
For `O=C1NC(c2ccccc2)(c2ccccc2)C(=O)N1CN1CC=CCC1`, the T/C [1] was 103 % of control, the T/C [2] was 108 % of control and the T/C [3] was 97 % of control.
For `CC1=CC=CC2=NC(=O)CCN12`, the T/C [18] was 100 % of control and the T/C (dose: 200.0 mg/kg/injection, schedule: Q04DX003 (ip), vehicle: saline with Tween-80) was 100 % of control.
`COc1ccccc1C(Nc1nncs1)Nc1nncs1` was tested, and the T/C [20] was 106 % of control and the T/C [21] was 97 % of control.
`CCc1c(C)sc(=S)n1C(C)C(=O)OC` (configuration not stated) was tested, and the T/C [4] was 98 % of control, the T/C [5] was 106 % of control and the T/C [6] was 107 % of control.
For `Oc1ccccc1C=NCc1ccccc1.[CH-]=C([CH2-])C.[Pd+2]`, the T/C (dose: 6.25 mg/kg/injection, schedule: Q01DX009 (ip), vehicle: Klucel (hydroxypropylcellulose) (HPC)) was 107 % of control, the T/C (dose: 6.25 mg/kg/injection, schedule: Q04DX003 (ip), vehicle: Klucel (hydroxypropylcellulose) (HPC)) was 92 % of control and the T/C (dose: 12.5 mg/kg/injection, schedule: Q01DX009 (ip), vehicle: Klucel (hydroxypropylcellulose) (HPC)) was 106 % of control. The T/C (dose: 12.5 mg/kg/injection, schedule: Q04DX003 (ip), vehicle: Klucel (hydroxypropylcellulose) (HPC)) was 113 % of control, the T/C (dose: 25.0 mg/kg/injection, schedule: Q01DX009 (ip), vehicle: Klucel (hydroxypropylcellulose) (HPC)) was 106 % of control and the T/C (dose: 25.0 mg/kg/injection, schedule: Q04DX003 (ip), vehicle: Klucel (hydroxypropylcellulose) (HPC)) was 111 % of control.
